Columns and labels:
[1] = DSC doublet peak area (α-structure) of hair after heat cycles
Method: Normal blonde hair was bleached with Clairol Basic White Bleach (40 volume H2O2) for 20 min at standard room temperature and humidity. The bleached swatches were rinsed with tap water, and soaked in an excess of deionized water for 2 hours. The swatches were air-dried and equilibrated for 48 hours prior to further treatment. Some of the bleached swatches were subsequently “permed” using a Reforming Lotion (10% TGA, pH 8.8, 20 minutes) and then neutralized with 2% H2O2, pH 3 (5 minutes). The bleached/permed swatches were rinsed with tap water, and soaked in an excess of deionized water for 2 hours. The swatches were air-dried and equilibrated for 48 hours prior to further treatment. The swatches that were heat treated were treated with 0.06M solutions of hexoses and pentoses for 10 min at 45° C. and then were heated for 12 cycles. The swatches were rinsed after the heat application.
In the DSC tests, finely cut hair (4-5 mg) was crimped in an aluminum pan that was punctured prior to each run. The samples were heated from 25° C. to 300° C., at a scanning rate of 20° C./min, with 5 runs per treatment. The results were averaged.
Normal blonde hair was bleached with Clairol Basic White Bleach, 40 volume H2O2, for 20 min at room temperature. One batch of normal and bleached hair swatches underwent five heat cycles at 130° C., where one treatment cycle involved the following steps (1-4):
1. The swatches were treated with 0.06 M solutions of monosaccharides in deionized water (about 1 wt %) for 10 min at 45° C.
2. The treated swatches were blow-dried for 1 min.
3. The heat was applied for 1 min in the form of a flat hair iron Windmere “Solid Gold” (130° C.).
4. The swatches were rinsed and blot-dried with a paper-towel.
The treatment solutions included four pentoses (D-xylose, D-arabinose, D-lyxose, and D-ribose, 1% each) and one hexose (1.2% D-glucose). Deionized water was used as a control treatment. After the heat experiment, the hair was rinsed in water, air-dried, and equilibrated for 24 hours in the humidity chamber at 25° C. and 50% RH prior to further testing. These swatches are referred to as treated at 130° C.
A second batch of normal and bleached hair swatches were treated in a similar way and blow-dried, without application of the hot iron. The treatment was also repeated 5 times, the swatches from the second batch are referred to as treated at 45° C.
Normal blonde hair was divided in two batches. The hair from the first batch was bleached with Clairol Basic White Bleach, 40 volume H2O2, for 20 min at room temperature and humidity. The hair from the second batch was first bleached as above, and then permed: Reforming lotion-10% Thioglycolic acid, pH 8.8, 20 min; neutralizer-2% hydrogen peroxide, 5 min. The oxidatively damaged hair was equilibrated for 24 hours prior to further testing.
Both the bleached and the bleached/permed hair were subjected to heat treatment, as in Example 2. The heat treatment experiment involved 12 heat cycles including application of sugar or control solution before each heat application, and rinsing after the heat application. Deionized water was used as a control treatment.
After the heat experiment, the hair was rinsed in water, air-dried, and equilibrated for 24 h in the humidity chamber at 25° C. and 50% RH prior to further testing. The effect of the hexoses vs. pentoses on the dry tensile strength (INSTRON) and the alpha-structure (doublet peak area, DSC) was tested on the bleached hair (Table 13). The effect of a hexose (D-glucose) vs. a pentose (D-Xylose) on wet tensile strength (DIA-STRON) was tested both on the bleached and the bleached/permed hair (Table 14). Application of 0.06M solutions of pentoses protected the bleached and the bleached/permed hair against thermal damage (α-structure; wet and dry tensile strength).

[2] = as above; conditions: for Doublet Peak Area: bleached/permed hair after 12 heat cycles, 0.06 M solutions
Method: Normal blonde hair was bleached with Clairol Basic White Bleach (40 volume H2O2) for 20 min at standard room temperature and humidity. The bleached swatches were rinsed with tap water, and soaked in an excess of deionized water for 2 hours. The swatches were air-dried and equilibrated for 48 hours prior to further treatment. Some of the bleached swatches were subsequently “permed” using a Reforming Lotion (10% TGA, pH 8.8, 20 minutes) and then neutralized with 2% H2O2, pH 3 (5 minutes). The bleached/permed swatches were rinsed with tap water, and soaked in an excess of deionized water for 2 hours. The swatches were air-dried and equilibrated for 48 hours prior to further treatment. The swatches that were heat treated were treated with 0.06M solutions of hexoses and pentoses for 10 min at 45° C. and then were heated for 12 cycles. The swatches were rinsed after the heat application. In the DSC tests, finely cut hair (4-5 mg) was crimped in an aluminum pan that was punctured prior to each run. The samples were heated from 25° C. to 300° C., at a scanning rate of 20° C./min, with 5 runs per treatment. The results were averaged. Normal blonde hair was divided in two batches. The hair from the first batch was bleached with Clairol Basic White Bleach, 40 volume H2O2, for 20 min at room temperature and humidity. The hair from the second batch was first bleached as above, and then permed: Reforming lotion-10% Thioglycolic acid, pH 8.8, 20 min; neutralizer-2% hydrogen peroxide, 5 min. The oxidatively damaged hair was equilibrated for 24 hours prior to further testing. Both the bleached and the bleached/permed hair were subjected to heat treatment, as in Example 2. The heat treatment experiment involved 12 heat cycles including application of sugar or control solution before each heat application, and rinsing after the heat application. Deionized water was used as a control treatment. After the heat experiment, the hair was rinsed in water, air-dried, and equilibrated for 24 h in the humidity chamber at 25° C. and 50% RH prior to further testing. The effect of the hexoses vs. pentoses on the dry tensile strength (INSTRON) and the alpha-structure (doublet peak area, DSC) was tested on the bleached hair (Table 13). The effect of a hexose (D-glucose) vs. a pentose (D-Xylose) on wet tensile strength (DIA-STRON) was tested both on the bleached and the bleached/permed hair (Table 14). Application of 0.06M solutions of pentoses protected the bleached and the bleached/permed hair against thermal damage (α-structure; wet and dry tensile strength).

[3] = Cuticle loss estimated by UV transmittance of suspension; conditions: relaxed ethnic hair, greater transmittance = less cuticle loss
Method: Kinky hair was relaxed using 2.5% sodium hydroxide (20 min at room temperature). The hair was thoroughly rinsed with water, and a treatment solution was applied for 10 min at 45° C. Each of the following treatment solutions were tested: a) 1% D-xylose, b) 5% D-xylose, and c) deionized water-control treatment.
The cuticle loss was estimated as follows. The relaxed/treated hair (0.5 g) was immersed in 2.5 mL deionized water for 15 min at 45° C. The hair was removed and UV transmittance of the remaining cloudy suspension was determined. The greater the transmittance, the less material is suspended, and therefore, the less damage to the hair.

[4] = bleached hair after 12 heat cycles, 0.06 M solutions
[5] = bleached hair after 12 heat cycles, 0.06 M solutions (Table 14)
[6] = bleached hair, 5 cycles at 45° C., 0.06 M solutions
[7] = bleached hair, 5 heat cycles at 130° C., 0.06 M solutions

Row | Compound | Doublet Peak Area [1, 4] | Doublet Peak Area [1, 5] | Doublet Peak Area [1, 6] | Doublet Peak Area [1, 7] | Doublet Peak Area [2] | protection effect (normalized α-structure peak area), in words ([1]; bleached and bleached/permed hair, 12 heat cycles) | Normalized area ([1]; bleached hair, 12 heat cycles, 0.06 M) | Transmittance, at 600 nm ([3]; 1% solution) | Transmittance, at 600 nm ([3]; 5% solution) | Normalized area ([2]; bleached/permed hair, 12 heat cycles, 0.06 M)
1 | O=C[C@H](O)[C@@H](O)[C@H](O)[C@H](O)CO [D-Glucose, reference compound] | 5.56 +/− 1.16 J/g hair | 5.56 +/− 1.16 J/g hair | 6.35 +/− 2.71 J/g hair | 5.37 +/− 1.22 J/g hair | 4.96 +/− 0.32 J/g hair |  |  |  |  | 
2 | O=C[C@H](O)[C@@H](O)[C@H](O)CO [D-Xylose] | 9.74 +/− 2.13 J/g hair | 9.74 +/− 2.13 J/g hair | 8.41 +/− 1.33 J/g hair | 9.66 +/− 2.59 J/g hair | 9.78 +/− 1.48 J/g hair | protection effect was found | 9.74 +/− 2.13 J/g hair | 0.9545 | 0.9339 | 9.78 +/− 1.48 J/g hair
